From patent US20090137616A1, “METHOD FOR THE CONTROL OF PHYTOPATHOGENIC FUNGI” (Syngenta Crop Protection, Inc., priority 2004, published 2009)

Experiments:
P. ultimum = experiment: Greenhouse seed treatment efficacy, Pioneer hybrid 34M95 seeds in Pythium-infested soil; assay type: in vivo; conditions: vs uninoculated seeds
Source text: Seeds of the Pioneer hybrid 34M95 were untreated and treated with mefenoxam, azoxystrobin or trifloxystrobin at the rates described in Table 3. To test the efficacy of the seed treatment fungicides pasteurized soil was infested with each isolate of Pythium at a rate of 7.8% (volume of inoculum/volume of soil). All these studies were done under greenhouse conditions, and data presented as a comparison against uninoculated seeds.

Pythium = experiment: Sensitivity of Pythium isolates to phenylamide and strobilurin fungicides (summary); assay type: cell-based; conditions: isolates from several species of Pythium that are insensitive to mefenoxam
Description: Plant and soil samples were collected from fields where plant stand establishment issues appeared to be increasing when using standard mefenoxam or metalaxyl seed treatment fungicide programs. Fungal pathogens were isolated from the plant and soil material. Pythium species were identified and studies were conducted to determine the sensitivity of these fungal pathogens to phenylamide and strobilurin fungicides. It can be seen that isolates from several species of Pythium that are insensitive to mefenoxam are sensitive to azoxystrobin or trifloxystrobin.

[1] = P. ultimum 03-047, seed treatment 1 g a.i/100 KgSeeds
[2] = P. ultimum 03-795, seed treatment 1 g a.i/100 KgSeeds
[3] = P. ultimum 03-047, seed treatment 2 g a.i/100 KgSeeds
[4] = P. ultimum 03-795, seed treatment 2 g a.i/100 KgSeeds
[5] = P. ultimum 03-047, seed treatment 5 g a.i/100 KgSeeds
[6] = P. ultimum 03-795, seed treatment 5 g a.i/100 KgSeeds

Compound	% fresh weight reduction (P. ultimum; [1]) [%]	% stand reduction (P. ultimum; [1]) [%]	% fresh weight reduction (P. ultimum; [2]) [%]	% stand reduction (P. ultimum; [2]) [%]	sensitivity of mefenoxam-insensitive Pythium isolates (Pythium)	% fresh weight reduction (P. ultimum; [3]) [%]	% stand reduction (P. ultimum; [3]) [%]	% fresh weight reduction (P. ultimum; [4]) [%]	% stand reduction (P. ultimum; [4]) [%]	% fresh weight reduction (P. ultimum; [5]) [%]	% stand reduction (P. ultimum; [5]) [%]	% fresh weight reduction (P. ultimum; [6]) [%]	% stand reduction (P. ultimum; [6]) [%]
CO/C=C(/C(=O)OC)c1ccccc1Oc1cc(Oc2ccccc2C#N)ncn1 [Azoxystrobin, azoxystrobin]	7.9	0.0	24.7	6.7	sensitive								
COCC(=O)N(c1c(C)cccc1C)[C@H](C)C(=O)OC [Mefenoxam, mefenoxam]						5.2	6.7	15.3	6.7				
CON=C(C(=O)OC)c1ccccc1CON=C(C)c1cccc(C(F)(F)F)c1 [Trifloxystrobin, trifloxystrobin]					sensitive					0.0	0.0	24.1	6.7
